Source: article PMC3095698 (Journal of molecular biology, 2011)

Columns and labels:
Format in all cases: biochemical
[1] = biological target: 3×HA-DGKα (Homo sapiens, UniProt P23743, V656L); experiment: […]-ATP phosphorylation in Triton X-100 mixed micelles, COS-7 lysate; conditions: 0.1 mM ATP, 5 mM MgCl2, pH 7.5, 25 °C; DOPS in micelles; surface mole percent
[2] = biological target: 3×HA-DGKα (Homo sapiens, UniProt P23743); experiment: as above; conditions: 0.1 mM ATP, 5 mM MgCl2, pH 7.5, 25 °C; DOPS in micelles; surface mole percent
3×HA-DGKα (Homo sapiens, UniProt P23743), sequence (P23743 whole entry): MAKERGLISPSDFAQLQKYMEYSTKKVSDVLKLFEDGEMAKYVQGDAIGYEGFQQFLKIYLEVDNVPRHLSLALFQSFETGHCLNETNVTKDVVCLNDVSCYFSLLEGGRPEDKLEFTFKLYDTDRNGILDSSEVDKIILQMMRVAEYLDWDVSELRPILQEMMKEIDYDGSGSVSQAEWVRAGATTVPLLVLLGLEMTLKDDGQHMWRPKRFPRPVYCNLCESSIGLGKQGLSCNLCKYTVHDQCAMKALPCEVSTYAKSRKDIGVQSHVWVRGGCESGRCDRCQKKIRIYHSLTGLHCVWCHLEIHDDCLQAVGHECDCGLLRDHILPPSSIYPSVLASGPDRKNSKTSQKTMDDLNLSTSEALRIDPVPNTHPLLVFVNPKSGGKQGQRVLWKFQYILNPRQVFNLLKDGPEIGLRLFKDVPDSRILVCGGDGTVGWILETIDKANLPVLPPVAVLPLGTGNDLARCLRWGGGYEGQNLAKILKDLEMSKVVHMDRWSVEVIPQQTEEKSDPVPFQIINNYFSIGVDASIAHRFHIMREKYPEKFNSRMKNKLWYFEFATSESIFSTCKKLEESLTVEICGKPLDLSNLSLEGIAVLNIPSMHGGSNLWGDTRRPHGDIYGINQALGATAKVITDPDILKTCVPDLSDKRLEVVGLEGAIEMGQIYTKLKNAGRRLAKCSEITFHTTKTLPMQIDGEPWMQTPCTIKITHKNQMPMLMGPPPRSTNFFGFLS

[3] = biological target: c-myc-PIP5K Iα (Homo sapiens, UniProt Q99755); experiment: activation of DP-PI; conditions: activator; 20 μM DP-PI(4)P, 50 μM PA, 50 μM ATP
c-myc-PIP5K Iα, sequence (Q99755 whole entry): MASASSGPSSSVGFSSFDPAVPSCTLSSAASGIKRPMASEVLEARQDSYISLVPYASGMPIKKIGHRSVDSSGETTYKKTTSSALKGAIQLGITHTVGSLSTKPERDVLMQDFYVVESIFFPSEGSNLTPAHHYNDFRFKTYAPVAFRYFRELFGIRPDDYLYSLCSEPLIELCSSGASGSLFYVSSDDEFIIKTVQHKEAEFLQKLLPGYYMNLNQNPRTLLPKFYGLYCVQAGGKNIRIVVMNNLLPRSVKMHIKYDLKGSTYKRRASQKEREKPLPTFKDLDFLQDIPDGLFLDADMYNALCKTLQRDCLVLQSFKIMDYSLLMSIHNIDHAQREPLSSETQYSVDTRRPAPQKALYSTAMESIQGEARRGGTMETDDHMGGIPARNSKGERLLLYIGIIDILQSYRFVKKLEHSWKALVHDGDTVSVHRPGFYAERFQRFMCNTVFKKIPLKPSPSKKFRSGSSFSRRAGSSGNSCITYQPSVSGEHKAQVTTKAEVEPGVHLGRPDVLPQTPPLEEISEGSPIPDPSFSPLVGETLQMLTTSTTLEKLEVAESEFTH

3×HA-DGKα (Homo sapiens, UniProt P23743, V656L), sequence (P23743 whole entry V656L): as the sequence (P23743 whole entry) above, with V656L counted along it

SMILES | Km, mol% [1] [mol%] | Km, mol% [2] [mol%] | fold activation [3] [fold]
CCCCC/C=C\C/C=C\C/C=C\C/C=C\CCCC(=O)O[C@@H](CO)COC(=O)CCCCCCCCCCCCCCCCC [SAG, 1-Stearoyl-2-arachidonoyl-sn-glycerol] | 1.8 ± 0.3 | 2.1 ± 0.4 | 
CCCCC/C=C\C/C=C\CCCCCCCC(=O)O[C@@H](CO)COC(=O)CCCCCCCCCCCCCCCCC [SLG, 1-Stearoyl-2-linoleoyl-sn-glycerol] | 1.5 ± 0.4 | 2.8 ± 0.3 | 
CCCCC/C=C\C/C=C\C/C=C\C/C=C\CCCC(=O)OC[C@H](COP(=O)(O)O)OC(=O)CCC/C=C\C/C=C\C/C=C\C/C=C\CCCCC [DAPA, 1,2-Diarachidonoyl phosphatidic acid] |  |  | 12
